Laboratory results: US9714249B2 (Novartis AG, priority 2013, dated 2017)

Key:
[1] = target: BRD3 (His-Brd3(20-477)) (Homo sapiens (Human), UniProt Q15059); test: TR-FRET in-vitro binding assay for BRD3; settings: acetyl-histone H4 peptide
[2] = tested on: K-562 cells; test: Cell growth inhibition assay (CellTiter-Glo), K-562; format: cell-based, human; settings: K-562, 4 days; for GI50: Homo sapiens, K562, 96 h, half-maximal growth inhibition; for K-562 TGI: total growth inhibition
Summary of the method: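 Growth of each leukemia line in its own serum-containing medium was measured by CellTiter-Glo ATP luminescence after 4 days at 37 °C with 3-fold serial dilutions starting at 10 μM (0.1% DMSO). Readings were corrected for background and day 0, scaled so that vehicle is 100% and medium-only is −100%, and 4-parameter fits gave IC50 and TGI.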

Sequence of BRD3 (His-Brd3(20-477)) (Q15059 20-477, species assumed): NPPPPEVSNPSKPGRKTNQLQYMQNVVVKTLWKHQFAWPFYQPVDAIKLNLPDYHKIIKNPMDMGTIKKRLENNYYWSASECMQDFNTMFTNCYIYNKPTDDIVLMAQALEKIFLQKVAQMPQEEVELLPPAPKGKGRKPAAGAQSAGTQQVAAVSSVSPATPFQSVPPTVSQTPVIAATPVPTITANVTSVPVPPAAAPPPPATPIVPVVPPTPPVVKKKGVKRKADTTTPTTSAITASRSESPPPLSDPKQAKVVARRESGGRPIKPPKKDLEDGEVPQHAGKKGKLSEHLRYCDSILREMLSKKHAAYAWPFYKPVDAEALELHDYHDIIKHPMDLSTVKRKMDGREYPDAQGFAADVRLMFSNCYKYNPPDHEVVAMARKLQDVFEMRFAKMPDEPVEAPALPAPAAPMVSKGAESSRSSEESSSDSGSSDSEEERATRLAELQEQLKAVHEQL

Row | IC50 [1] [nM] | GI50 [2] [nM] | SMILES | K-562 TGI [2] [nM]
1 | 94 | 510 | COc1ncc(-n2nc3c(c2C)C(=O)N(c2cc(C)c(=O)n(C)c2)C3c2ccc(Cl)cc2)cn1 (stereo not drawn) [Example 21b, 6-(4-chlorophenyl)-5-(1,5-dimethyl-6-oxo-1,6-dihydropyridin-3-yl)-2-(2-methoxypyrimidin-5-yl)-3-methyl-5,6-dihydropyrrolo[3,4-c]pyrazol-4(2H)-one] | >10000
2 | 13 | 109 | COCCn1nc(C2CC2)c2c1C(c1ccc(Cl)cc1)N(c1cc(C)c(=O)n(C)c1)C2=O (stereo not drawn) [Example 4, 6-(4-chlorophenyl)-3-cyclopropyl-5-(1,5-dimethyl-6-oxo-1,6-dihydropyridin-3-yl)-1-(2-methoxyethyl)-5,6-dihydropyrrolo[3,4-c]pyrazol-4(1H)-one] | >10000
3 | 46 | 154 | COc1ncccc1-n1nc2c(c1C)C(=O)N(c1cc(C)c(=O)n(C)c1)C2c1ccc(Cl)cc1 (stereo not drawn) [Example 17b, 6-(4-chlorophenyl)-5-(1,5-dimethyl-6-oxo-1,6-dihydropyridin-3-yl)-2-(2-methoxypyridin-3-yl)-3-methyl-5,6-dihydropyrrolo[3,4-c]pyrazol-4(2H)-one] | >10000
4 | 46 | 193 | Cc1nn(C(C)C)c2c1C(=O)N(c1cc(C)c(=O)n(C)c1)C2c1ccc(Cl)cc1 (stereo not drawn) [Example 12, 6-(4-chlorophenyl)-5-(1,5-dimethyl-6-oxo-1,6-dihydropyridin-3-yl)-1-isopropyl-3-methyl-5,6-dihydropyrrolo[3,4-c]pyrazol-4(1H)-one] | >10000
